Several values for one entry are separate records, joined by “and”; a condition that tells them apart may be missing. Identical values can stand only once.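 Briefly, cells in 96-well plates were exposed to five compound concentrations for 48 h, and endpoints were estimated by linear interpolation. Abbreviation: GI50, concentration required for 50% inhibition of growth. The concentration for full growth arrest is given as TGI.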
Assays:
Assay in all cases: inhibition of tumour cell growth, NCI panel, 48 h
DLD-1 colon = tested on: DLD-1 colon
U251 CNS = tested on: U251 CNS
SK-OV-3 ovarian = tested on: SK-OV-3 ovarian
NCI-H23 lung = tested on: NCI-H23 lung
LXFL 529 NSCLC = tested on: LXFL 529 NSCLC
CCRF-CEM leukemia = tested on: CCRF-CEM leukemia
NCI-H522 lung = tested on: NCI-H522 lung
SR leukemia = tested on: SR leukemia
K-562 leukemia = tested on: K-562 leukemia
M19-MEL melanoma = tested on: M19-MEL melanoma
DMS 114 small cell lung = tested on: DMS 114 small cell lung
LOX IMVI melanoma = tested on: LOX IMVI melanoma

| SMILES | TGI (DLD-1 colon) | TGI (U251 CNS) | TGI (SK-OV-3 ovarian) | TGI (NCI-H23 lung) | TGI (LXFL 529 NSCLC) | TGI (CCRF-CEM leukemia) | TGI (NCI-H522 lung) | TGI (SR leukemia) | TGI (K-562 leukemia) | TGI (M19-MEL melanoma) | TGI (DMS 114 small cell lung) | TGI (LOX IMVI melanoma) | GI50 (U251 CNS) | GI50 (SK-OV-3 ovarian) | GI50 (NCI-H23 lung) | GI50 (CCRF-CEM leukemia) | GI50 (NCI-H522 lung) | GI50 (SR leukemia) | GI50 (K-562 leukemia) | GI50 (LOX IMVI melanoma) |
| --- | --- | --- | --- | --- | --- | --- | --- | --- | --- | --- | --- | --- | --- | --- | --- | --- | --- | --- | --- | --- |
| COc1cccc(/C=N\NC(=O)C(C)SC(C)C(=O)N/N=C/c2cccc(OC)c2)c1 (configuration not stated) | > 100 µM | 35.9 µM | 32.4 µM | 73.2 µM | > 100 µM | > 93.5 µM | 59.1 µM | > 100 µM | > 100 µM | > 100 µM | 41.6 µM |  |  |  |  |  |  |  |  |  |
| C[C@H]1CC[P+](C)(c2ccccc2)C1 (some centres not stated) | > 100 µM | > 100 µM | > 100 µM | > 100 µM | > 100 µM | > 100 µM | > 100 µM | > 100 µM | > 100 µM | > 100 µM | > 100 µM | > 100 µM |  |  |  |  |  |  |  |  |
| NCCCN=c1ccc2c3c1c(O)c1c(O)ccc(=O)c1c3[nH]n2CCNCCO | 159 µM | 5.61 µM and 27.7 µM | 16.2 µM and 55.7 µM | 5.66 µM and 8.54 µM |  | 8.77 µM and 28.3 µM | 4.69 µM and 3.28 µM |  | 24.2 µM and 27.2 µM | > 250 µM | > 250 µM | 5.8 µM | 0.606 µM and 0.485 µM | 1.51 µM | 1.06 µM | 0.583 µM and 0.478 µM | 0.55 µM | 0.291 µM | 1.61 µM and 1.64 µM | 1.53 µM |
| Cc1nc2ccccc2c(=O)n1/N=C(\N=Nc1cc(Cl)ccc1Cl)c1ccccc1 | > 100 µM | > 75.2 µM | > 100 µM | > 100 µM | > 100 µM | > 100 µM | 81.7 µM | > 100 µM | > 100 µM | > 100 µM | 82.4 µM | > 100 µM |  |  |  |  |  |  |  |  |
| Cc1cc(Cl)ccc1NC(=O)C1C(=O)N(c2ccc(Cl)cc2C)C(=O)/C1=N\NC(N)=S (configuration not stated) | > 100 µM | 39.6 µM |  | 41.6 µM | 98.5 µM | 56.5 µM | 34.4 µM |  | 57.8 µM | > 100 µM | 98.7 µM |  |  |  |  |  |  |  |  |  |
| Cc1ccc2ccc(-c3ccccc3)c3c2c1C(=O)c1ccccc1C3=O | > 100 µM | > 100 µM | > 100 µM | > 100 µM | > 100 µM | > 100 µM | > 100 µM | > 100 µM | > 100 µM | > 100 µM | > 100 µM | > 100 µM |  |  |  |  |  |  |  |  |
| N#CCc1cccc(CC#N)c1Br | > 100 µM | > 100 µM | > 100 µM | > 100 µM | > 100 µM | > 100 µM | > 100 µM | > 100 µM | > 100 µM |  | > 100 µM | > 100 µM |  |  |  |  |  |  |  |  |
| COc1ccccc1NC(=O)C1=C(C)NC(C)=C(C(=O)Nc2ccccc2OC)C1c1ccco1 | > 100 µM | 47 µM | > 76.3 µM | 32.4 µM | > 100 µM | 59.8 µM | 8.6 µM | 15.3 µM | > 63.5 µM | > 100 µM | 7.53 µM | > 100 µM |  |  |  |  |  |  |  |  |
| OCC(O)C(O)C(O)c1nn(-c2ccc(F)cc2)c2nc3cc(Cl)c(Cl)cc3nc12 (configuration not stated) | > 100 µM | > 100 µM | 46.4 µM | 48 µM | > 100 µM | 40 µM | 31.4 µM |  | 43.2 µM | 57.8 µM | 71.4 µM | 76.5 µM |  |  |  |  |  |  |  |  |
| O=C1CCC(=O)N1Sc1ccccc1 | > 100 µM | > 100 µM | > 100 µM | > 100 µM |  | > 100 µM | > 100 µM |  | > 100 µM | > 100 µM | > 100 µM | > 100 µM |  |  |  |  |  |  |  |  |
| COc1cc2c(c(OC)c1OC)C(=O)NCCC2 | > 100 µM | > 100 µM | > 100 µM | > 100 µM | > 100 µM | > 100 µM | > 100 µM | > 100 µM | > 100 µM | > 100 µM | > 100 µM | > 100 µM |  |  |  |  |  |  |  |  |
| C1=CC2CCC1CN2CCC1CNc2ccccc21 (configuration not stated) | > 100 µM | > 100 µM | > 100 µM | > 100 µM | > 100 µM | > 100 µM | > 100 µM | > 100 µM | > 100 µM | > 100 µM | > 100 µM | > 100 µM |  |  |  |  |  |  |  |  |
